The record followed here is PubChem BioAssay (NCI).

Structures are written as SMILES.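 In this assay, cells in 96-well plates receive the compound at five concentrations for 48 hours. Endpoints are linearly interpolated between the surrounding concentrations. GI50 = concentration required for 50% inhibition of growth. At the TGI there is no net growth.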

Common to all, as to assay: NCI-60 cell line screen, 48 h
The test system of assay [1] is ACHN renal.
In assay [2] the test system is UO-31 renal.
Assay [3] relates to MDA-MB-231 breast.
The test system of assay [4] is SF-268 CNS.
For assay [5], the system named is RXF 393 renal.
Assay [6] deals with NCI-H226 lung.
In assay [7] the test system is HCT-15 colon.
The test system of assay [8] is MDA-MB-435.
Assay [9] relates to BT-549 breast.
Assay [10] relates to SR leukemia.

As for `Cc1ccc(S(=O)(=O)Oc2ccc([N+](=O)[O-])cc2[N+](=O)[O-])cc1`, the GI50 in assay [1] is 7.64 µM; in assay [2], 2.48 µM; in assay [3] it was 6.7 µM; in assay [4], 3.64 µM; in assay [5], 7.89 µM; in assay [6] it was 10.6 µM. The GI50 in [7] is 3.61 µM; in assay [8] it was 3.1 µM; in [9] it was 5.41 µM. Also, the TGI in [1] was 22.5 µM; in assay [2], 9.26 µM; in assay [3], 22.1 µM; in assay [4], 15 µM; in assay [5], 20.7 µM; in assay [6], 43.6 µM. Further, the TGI in assay [7] worked out at 17.9 µM; in assay [8], 10.5 µM; in assay [9], 18 µM.
Take `CCN(CC)CC.CCOc1ccc(NC(=O)N=C=[N-])cc1.[CH-]1CCCCC1.[CH-]1CCCCC1.[CH-]1CCCCC1.[Cl-].[Sn+4]`: the GI50 in assay [1] was 0.0493 µM; in assay [2] it was 0.0452 µM; in assay [3], 0.103 µM; in assay [4] it was 0.0332 µM; in assay [5], 0.0146 µM; in [6] it was 0.0737 µM. For the same compound, the GI50 in assay [7] was 0.0198 µM; in assay [8] it was 0.0151 µM; in [9], 0.149 µM. The TGI in [1] is 0.116 µM; in [2] it was 0.0928 µM; in [3], 0.25 µM; in [4] it was 0.0954 µM; in assay [5] it was 0.0336 µM; in assay [6], 0.183 µM. Moreover, the values for the TGI in assay [7], in assay [8] and in assay [9] were 0.0555 µM, 0.0296 µM and 0.292 µM, respectively.
For the compound `O=C(CSc1nc2ccccc2nc1-c1ccccc1)Nc1ccc(Cl)cc1`, the GI50 is 12.3 µM in [1]; 55.4 µM in assay [2]; 30.5 µM in assay [3]; 15.5 µM in assay [4]; 19.1 µM in assay [5]; 16.7 µM in [6]. For the same compound, the GI50 in assay [7] was 76.7 µM; in [8], 29.8 µM; in assay [9], 33.5 µM. For the same compound, the TGI in assay [1] is 47.1 µM; in [2], > 100 µM; in assay [3] it was > 100 µM; in [4], 51.3 µM; in [5] it was 62.7 µM; in assay [6], 51.1 µM. Besides, the TGI in [7], in [8] and in assay [9] was > 100 µM throughout.
In the case of `O=C1/C(=C\c2ccc(F)cc2)CN(C(=O)c2ccc([N+](=O)[O-])cc2)C/C1=C\c1ccc(F)cc1`, the GI50 was 2.46 µM in assay [1]; 1.69 µM in [2]; 2.38 µM in assay [3]; 3.41 µM in assay [4]; 1.53 µM in assay [5]; 1.31 µM in [7]. The results for the GI50 in [8] and in [9] were 1.83 µM and 2 µM, respectively. The TGI is 7.49 µM in assay [1]; 6.99 µM in assay [2]; 7.92 µM in assay [3]; > 100 µM in assay [4]; 3.19 µM in assay [5]; > 21.4 µM in [6]. Further, the TGI in [7] is 4.31 µM; in assay [8], > 27.7 µM; in assay [9], 4.41 µM.
Consider `Cc1ccc2c(c1)C(C)Cc1c(ncnc1-n1cnc3cc(C)ccc31)N2C` (centres undefined), for which the GI50 in assay [1] was 0.0459 µM; in assay [2], 0.0729 µM; in [10], 0.0449 µM; in [3], 0.0416 µM; in [4] it was 0.045 µM; in assay [5] it was 0.0289 µM. For the same compound, the GI50 was 0.0551 µM in assay [6], 0.0334 µM in assay [7] and 0.0281 µM in [9]. In addition, the TGI in [1] was found to be 12 µM; in [2], 12.3 µM; in assay [10] it was 13.4 µM; in assay [3] it was 13.4 µM; in assay [4], 12.3 µM; in assay [5] it was 8.74 µM. The TGI in assay [6] was determined as 22.8 µM; in [7], 11.7 µM; in [9], 0.338 µM.
Consider `NCCCCCCCCn1c2c(c3ccccc3c1=O)C(=O)c1ccccc1-2`, for which the GI50 is 4.07 µM in assay [1]; 3.36 µM in [2]; 2.12 µM in assay [3]; 6.44 µM in [4]; 4.58 µM in assay [5]; 14 µM in [6]. For the same compound, the results for the GI50 in [7], in assay [8] and in assay [9] were 3.26 µM, 5.63 µM and 5.18 µM, respectively. Also, the TGI in assay [1] is 14 µM; in assay [2] it was 12.3 µM; in assay [3], 5.73 µM; in assay [4], > 100 µM; in assay [5], > 100 µM; in assay [6], 34.8 µM. For the same compound, the TGI in assay [7] is 10.2 µM; in assay [8] it was 21.5 µM; in assay [9], 23.3 µM.
As for `COc1ccc(CCN2CCCN3C2=Nc2ccccc2S3(=O)=O)cc1`, the GI50 in assay [1] is 0.736 µM; in assay [2], 0.913 µM; in assay [10], 0.193 µM; in assay [3], 1.68 µM; in assay [4], 2.06 µM; in [5], 0.622 µM. Moreover, the GI50 was 8.25 µM in assay [6], 0.342 µM in assay [7] and 0.923 µM in assay [9]. Besides, the TGI in assay [1], in assay [2], in [10], in assay [3], in assay [4] and in assay [5] was > 100 µM throughout. Besides, the TGI in assay [6] is > 100 µM; in [7], > 100 µM; in assay [9] it was 92.4 µM.
Take `NC(=NCCCC1(c2ccccc2)CCCC1)Nc1ccc(Cl)cc1`: the GI50 in assay [2] is 1.5 µM; in assay [10] it was 1.71 µM; in [3], 1.6 µM; in [4], 1.66 µM; in assay [5], 1.47 µM; in [7] it was 1.75 µM. Also, the figures for the GI50 in assay [8] and in [9] were 1.77 µM and 1.74 µM, respectively. For the same compound, the TGI in assay [2] turned out to be 3 µM; in assay [10] it was 4.24 µM; in assay [3] it was 3.14 µM; in [4] it was 3.35 µM; in [5], 2.88 µM; in assay [7], 3.29 µM. In addition, the figures for the TGI in [8] and in assay [9] were 3.21 µM and 3.27 µM, respectively.
Take `CCOC(=O)C(Cc1c[nH]c2ccc([N+](=O)[O-])cc12)(NC(C)=O)C(=O)OCC`: the GI50 in assay [1] was 151 µM; in [2], 80.3 µM; in assay [3] it was 140 µM; in assay [4], 188 µM; in assay [5], 66.4 µM; in assay [6] it was > 546 µM. Moreover, the results for the GI50 in [7], in [8] and in assay [9] were > 1000 µM, > 1000 µM and 44.5 µM, respectively. Further, the TGI in assay [1] is > 1000 µM; in assay [2], > 1000 µM; in [3], > 1000 µM; in assay [4] it was > 1000 µM; in [5], 261 µM; in assay [6], > 1000 µM. Moreover, the TGI in [7] was > 1000 µM; in assay [8], > 1000 µM; in assay [9], 426 µM.
In the case of `COc1cc2c3c(c4ccc(OC)c(OC)c4c2cc1OC)CN1CCC[C@@H]1C3`, the TGI is 3.55 µM in assay [1]; 0.291 µM in assay [2]; 0.156 µM in assay [3]; 2.38 µM in [4]; 0.29 µM in assay [5]; 0.263 µM in [6]. Moreover, the TGI in [7] turned out to be 11.4 µM; in [8], 5.83 µM; in assay [9], 2.36 µM.
`O=Nc1ccc(O)c2ccccc12`: the GI50 in assay [1] was 1.69 µM; in assay [2], 1.36 µM; in assay [3], 2.93 µM; in assay [4] it was 2.29 µM; in [5], 2.86 µM; in [6] it was 2.02 µM. Moreover, the GI50 in assay [7] is 2.14 µM; in assay [8], 0.33 µM; in assay [9] it was 1.93 µM. Besides, the TGI came out at 3.14 µM in assay [1]; 3.37 µM in assay [2]; 20.4 µM in assay [3]; 5.87 µM in assay [4]; 8.24 µM in [5]; 4.3 µM in assay [6]. In addition, the figures for the TGI in assay [7], in [8] and in [9] were 4.98 µM, 1.1 µM and 3.35 µM, respectively.
Consider `COc1ccccc1-c1cc(/C=C2\C(=O)Nc3ncc(Br)cc32)cc(Br)c1O`, for which the GI50 was 11.7 µM in [1]; 4.49 µM in [2]; 8.52 µM in assay [3]; 11.1 µM in assay [4]; 6.77 µM in [5]; 12.5 µM in [6]. The GI50 in assay [7] is 9.6 µM; in [8], 7.47 µM; in [9], 14.2 µM. Besides, the TGI in assay [1], in assay [2], in assay [3], in [4], in assay [5] and in assay [6] was > 25 µM in each case. Moreover, the TGI in assay [7], in assay [8] and in assay [9] was > 25 µM each time.
